ChEMBL document CHEMBL4342453, “Prenylated p-Terphenyls from a Mangrove Endophytic Fungus, Aspergillus candidus LDJ-5” (J Nat Prod, 2020)
Values after ≈ are worked out from the molar mass of the structure shown.

What was measured:
[1] = test system: HCT-116; test: Cytotoxicity against human HCT116 cells after 24 hrs by SRB method; details: HCT-116, 24 h
[2] = test system: HL-60; test: Cytotoxicity against human HL60 cells after 72 hrs by MTT assay; type: functional, cell-based; details: HL-60, 72 h
[3] = test system: L02; test: Cytotoxicity against human L02 cells after 24 hrs by SRB method; details: L02, 24 h
[4] = test system: Bel-7402; test: Cytotoxicity against human Bel7402 cells after 24 hrs by SRB method; details: Bel-7402, 24 h
[5] = test system: SH-SY5Y; test: Cytotoxicity against human SH-SY5Y cells after 24 hrs by SRB method
[6] = test system: K562; test: Cytotoxicity against human K562 cells after 72 hrs by MTT assay; details: K562, 72 h
[7] = test system: HeLa; test: Cytotoxicity against human HeLa cells after 24 hrs by SRB method
[8] = test system: A549; test: Cytotoxicity against human A549 cells after 24 hrs by SRB method; details: A549, 24 h
[9] = test system: MGC-803; test: Cytotoxicity against human MGC803 cells after 24 hrs by SRB method; details: MGC-803, 24 h
[10] = test system: U-87 MG; test: Cytotoxicity against human U87 cells after 24 hrs by SRB method
[11] = test system: Proteus; test: Antibacterial activity against Proteus by conventional broth dilution assay; type: functional

MIC [11] [µg/mL]	Compound	IC50 [1] [µM]	IC50 [2] [µM]	IC50 [3] [µM]	IC50 [4] [µM]	IC50 [5] [µM]	IC50 [6] [µM]	IC50 [7] [µM]	IC50 [8] [µM]	IC50 [9] [µM]	IC50 [10] [µM]
	COc1cc(-c2c(OC)cc(-c3ccccc3)c(OC)c2O)cc2c1OC(C)(C)CC2	16.9	> 50	29.7	12.6	12.4	> 50	11.5	16.3	12.5	> 50
	COc1cc(-c2c(OC)cc(-c3ccccc3)c(OC)c2O)cc(CC=C(C)C)c1O	14.7	> 50	24.4	11.1	16.7	> 50	11.4	14.8	14.5	> 50
	COc1c(-c2ccccc2)cc(OC)c2c1oc1c3c(c(O)cc12)OC(C)(C)C=C3	> 50	> 50	> 50	> 50	> 50	> 50	> 50	> 50	> 50	> 50
	COc1ccc(-c2c(OC)cc(-c3ccc(O)c(CC=C(C)C)c3)c(OC)c2O)cc1OC	6.2	> 50	> 50	> 50	15.6	15.9	8.5	7.6	8.1	> 50
	COc1c(-c2ccccc2)cc(OC)c2c1oc1cc(O)c(OCC=C(C)C)cc12	19.8	> 50	16.7	14.9	17.9	5	14	19.1	16.3	10.3
22 (≈ 50.2 µM)	COc1cc(-c2ccc(O)c(O)c2)c(OC)c(O)c1-c1ccc(OCC=C(C)C)c(O)c1	0.5	> 50	3.5	> 50	0.6	> 50	2	0.4	0.7	13.8
	COc1cc2oc3c(OC)c(-c4cc(CC=C(C)C)c(O)c(OC)c4)cc(OC)c3c2cc1O	0.9	3.4	17.9	16	2.2	> 50	10.1	2.8	1.4	> 50
	COc1cc2oc3c(OC)c(-c4cc(CC=C(C)C)c(O)c(OC)c4)cc(OC)c3c2cc1OC	> 50	> 50	> 50	> 50	> 50	> 50	> 50	> 50	> 50	> 50
	COc1cc(-c2c(OC)cc(-c3ccccc3)c(OC)c2O)ccc1OC/C=C(\C)CO	9.3	7.1	19.9	12.4	10.4	> 50	8.3	10.2	11	> 50
